Results: US20110224256A1, “T[…] THE TREATMENT OF PSYCHIATRIC DISORDERS” (priority 2008, published 2011)
“Also recorded” adds a separate entry of the source. Where a name gives a salt, the structure may show the parent alone.

System: Sprague-Dawley male rats
Assay: Place conditioning to 10 mg/kg cocaine at P60 after juvenile drug exposure
Type: in vivo
Conditions: juvenile exposure P20-P35: MPH 2 mg/kg, ±7-OHDPAT 0.3 mg/kg, or MPH 2 mg/kg + Naf 0.05 mg/kg; tested at P60; HCl
Protocol: Juvenile Sprague-Dawley male rats were treated with MPH (2 mg/kg, i.p. twice daily), ±7-OHDPAT (0.3 mg/kg, i.p. twice daily), Naf (0.05, 0.5 and 5 mg/kg; i.p. twice daily) or VEH (i.p. twice daily) between the ages of P20 and P35 (Andersen et al., Nat. Neurosci., 5:13-14 (2002)). The MPH dose was selected on the basis of previous studies (see Andersen et al., Nat. Neurosci., 5:13-14 (2002); Bolanos et al., Biol. Psychiatry, 54:1317-1329 (2003); and Mague et al., Biol. Psychiatry, 57:120-125 (2005)), unpublished observations that we find similar behavioral effects if MPH is given i.p. or orally at this dose, and evidence that it approximates a clinically relevant dose in humans based on plasma levels (see Wargin et al., J. Pharmacol. Exp. Ther., 226:382-386 (1983); and Kuczenski, R. & Segal, D. S. J. Neurosci., 22:7264-7271 (2002)). Clinically therapeutic doses of MPH yield plasma levels between 8 and 40 ng/mL (Swanson et al., Behay. Brain Res., 130:73-78 (2002); Teicher et al., Ann. N. Y. Acad. Sci., 1071:313-323 (2006)), with 0.5 mg/kg i.p., achieving plasma levels of 36 ng/mL within 5 min in rats (Berridge et al., Biol. Psychiatry, 60:1111-1120 (2006)). Doses for juvenile exposure to ±7-OHDPAT are based on Neisewander et al., Neuropsychopharmacology, 29:1479-1487 (2004), and cortical microinjections of 10 µg/side were derived from Boulay et al. Prog. Neuropsychopharmacol. Biol. Psychiatry, 24:39-49 (2000). Naf doses below 1 mg/kg have negligible D2 receptor occupancy (Sautel et al., J. Pharmacol. Exp. Ther., 275:1239-1246 (1995)) and are behaviorally effective (Richtand et al., Brain Res., 867:239-242 (2000)). Subjects were weighed daily at 09.00 h and injected with their assigned drug; the second injection was administered 4 h later at 13.00 h. This regimen is designed to match the twice-daily dosing used by children, taking into account the higher metabolic rates of rats (Wargin et al., J. Pharmacol. Exp. Ther., 226:382-386 (1983)). After the second drug administration on P35, the rats received no further treatments until behavioral testing at P60.
Rats treated between P20 and P35 with either Naf (0, 0.05, 0.5 or 5.0 mg/kg; n=7-9), ±7-OHDPAT (0.3 mg/kg; n=9), MPH (2 mg/kg; n=9), or a combination of 2 mg/kg MPH and 0.05 mg/kg Naf (MPH/Naf; n=8) were tested at P60 for place conditioning to 10 mg/kg cocaine. According to standard laboratory methods (Andersen et al., Nat. Neurosci., 5:13-14 (2002); Carlezon, Methods Mol. Med., 84:243-249 (2003)), unbiased place conditioning chambers consisted of two large (24×18×33) side compartments separated by a small (12×18×33 cm) middle compartment. Screening was conducted for 30 min on Day 1. Rats were placed in the middle compartment and allowed to freely explore the apparatus. […] Two days of conditioning (with two sessions per day) occurred on Days 2 and 3 for 60 min (Andersen et al., Nat. Neurosci., 5:13-14 (2002); Carlezon, Methods Mol. Med., 84:243-249 (2003)). During the conditioning sessions, rats received a 1 mL/kg i.p. injection of VEH in the morning (09.00 h) and confined to one side. The rats were then returned to the home cage. Four hours later, rats received 10 mg/kg cocaine and confined to the other side. Sides differed in floor texture, wall colors and lighting, and assignments were counterbalanced. On Day 4, rats were permitted to freely explore the entire apparatus for 30 min in a drug-free state.

COC(=O)C(c1ccccc1)C1CCCCN1 (stereo not drawn) [MPH, d,l-Methylphenidate HCl]
place conditioning to 10 mg/kg cocaine associated environment (pre- vs. post-conditioning): Place aversion; also recorded: aversion to the cocaine-associated environment
